Data as given in patent US20060002932A1, “Methods and compositions for enhancement of immunity by in vivo depletion of immunosuppressive cell activity” (priority 2004, published 2006).

Key:
[1] = tested on: CD4^+CD25^high regulatory T cells; test: MTT cytotoxicity assay on isolated regulatory T cells; format: cell-based, human
Procedure: […] The formazan crystals were solubilized by adding 100 μL isopropanol/0.1 M hydrochloric acid and incubating at 37° C. for 2 hours. The absorbance of the formazan product was measured on an enzyme-linked immunosorbent assay (ELISA) plate reader at 570 nm.
Interferon-γ and IL-4 ELISPOT analyses were performed using PBMC obtained prior to, during, and after vaccination. PBMC were cultured overnight in complete RPMI 1640 medium. CD4^+ and CD8^+ T cells were isolated from PBMC by negative depletion (Miltenyi). After blocking, 1×10^5 T cells and 1×10^4 RNA-transfected DC were added to each well of 96-well nitrocellulose plates (Multiscreen-IP, Millipore) precoated with 2 μg/ml Interferon-γ capture antibody (Endogen) or with IL-4 capture antibody (BD Biosciences Pharmingen). Plates were incubated for 20 hours at 37° C., and biotinylated Interferon-γ detection antibody (Endogen) or biotinylated IL-4 antibody (BD Biosciences Pharmingen) was added to each well. Cells were then incubated for an additional two hours at room temperature, then with streptavidin-alkaline phosphatase (1 μg/ml; Sigma) and plates were developed with substrate (Kirkegaard & Perry Laboratories). After washing, spots were counted using an automated ELISPOT reader (Carl Zeiss). CTL assays were performed by coculturing RNA-transfected DC with autologous PBMC. Cells were restimulated once and IL-2 (20 units/ml) was added after five days and every other day thereafter. After 12 days of culture, effector cells were harvested. Target cells were labeled with 100 μCi of Na2[^51CrO4] (NEN) in 200 μl of complete RPMI 1640 for one hour at 37° C. in 5% CO2 and ^51Cr-labeled target cells were incubated in complete RPMI 1640 medium with effector cells for five hours at 37° C. Then, 50 μl of supernatant was harvested, and release of ^51Cr was measured with a scintillation counter. For proliferation assays, purified CD3^+ T cells were seeded into round-bottomed microplates in the presence of mRNA-transfected DC. […] Incorporation of thymidine was determined using a liquid scintillation counter.

[2] = tested on: CD4^+CD25^− and CD4^+CD25^int cells; test: MTT cytotoxicity assay on CD25 negative/intermediate CD4+ T cells; format: cell-based, human
Procedure: After 48 hours of incubation, 20 μL MTT from a 5 mg/mL stock was added and incubation was continued for another 4 hours. The formazan crystals were solubilized by adding 100 μL isopropanol/0.1 M hydrochloric acid and incubating at 37° C. for 2 hours. The absorbance of the formazan product was measured on an enzyme-linked immunosorbent assay (ELISA) plate reader at 570 nm.
Interferon-γ and IL-4 ELISPOT analyses were performed using PBMC obtained prior to, during, and after vaccination. PBMC were cultured overnight in complete RPMI 1640 medium. CD4^+ and CD8^+ T cells were isolated from PBMC by negative depletion (Miltenyi). After blocking, 1×10^5 T cells and 1×10^4 RNA-transfected DC were added to each well of 96-well nitrocellulose plates (Multiscreen-IP, Millipore) precoated with 2 μg/ml Interferon-γ capture antibody (Endogen) or with IL-4 capture antibody (BD Biosciences Pharmingen). Plates were incubated for 20 hours at 37° C., and biotinylated Interferon-γ detection antibody (Endogen) or biotinylated IL-4 antibody (BD Biosciences Pharmingen) was added to each well. […] After washing, spots were counted using an automated ELISPOT reader (Carl Zeiss). […] Then, 50 μl of supernatant was harvested, and release of ^51Cr was measured with a scintillation counter. […] Incorporation of thymidine was determined using a liquid scintillation counter.

[3] = tested on: responder cells (PBMC) in MLR; test: Allogeneic DC-stimulated mixed lymphocyte reaction (MLR) proliferation; format: cell-based, human
[4] = tested on: CD4^+/CD25^+ T cells of study subjects; test: Treg functional evaluation (suppression of anti-CD3/CD28 activated indicator T cells); format: in vivo, human; details: CD4^+/CD25^+ T cells isolated prior to vs 4 days after treatment
Procedure: The suppressive activity of Treg isolated from PBMC of study subjects prior to and 4 days after […] administration was analyzed, as described previously^25. CD4^+/CD25^+ T cells were isolated from the PBMC of study subjects using magnetic bead separation techniques. Cells were washed with PBS, resuspended in complete RPMI 1640 medium, and placed into 96-well round bottom plates pre-coated with anti-CD3/CD28 antibodies (0.4 μg/well) (Caltag). CD4^+/CD25^− cells were plated at 2.0×10^4/well alone or in combination with CD4^+/CD25^+ cells in triplicate wells at a ratio of 1:2 (CD4^+/CD25^−:CD4^+CD25^+). On day 5, 1 μCi of ^3H thymidine was added for the final 16 hr of the cultures. Cells were then harvested on glass fiber filters and assessed for uptake of radiolabeled thymidine.

[5] = tested on: CD3+, CD4+, CD8^+ T cells, B cells, monocytes/macrophages, NK cells; test: Relative numbers of leukocyte subsets before and after DAB389IL-2; format: in vivo, human
Procedure: Using these methods, the degree of regulatory T cell depletion efficacy in the four subjects treated on the clinical protocol was determined.

[6] = 6-hour exposure, viability over 48 hours

denileukin diftitox [DAB389IL-2] was tested, and the “concentration giving complete depletion of CD4^+CD25^high cells” value [1, 6] was 5 nM, the “concentration giving efficient killing of CD4^+CD25^high cells” value [1, 6] was 0.5 nM and the “cell viability of CD4^+CD25^high regulatory T cells” value ([1]; 24 hours following exposure) was “significant reduction in cell viability”. For the same substance, the “concentration above which cell death occurred in CD4^+CD25^− and CD4^+CD25^int cells” value [2] was “higher than 10 nM”, the “cell death of CD4^+CD25^− and CD4^+CD25^int cells” value ([2]; concentrations up to 10 nM) was “did not result in significant cell death” and the “proliferation of responder cells” value ([3]; DAB389IL-2 added two days after initiation of the MLR) was “completely abrogated the proliferation of responder cells”. The “inhibitory effect of Treg added to MLR” value ([3]; pre-incubation of Treg with DAB389IL-2 5 nM) was “significantly abrogated their inhibitory effect”, the Treg-mediated immunosuppressive activity [4] was “abrogation of Treg-mediated immunosuppressive activity in vivo” and the “change in CD8^+/CD25^+ or CD19^+/CD25^+ cells” value ([5]; one subject analyzed) was “no decrease”. The “change in relative number of CD3+, CD4+, CD8+ T cells, B cells, monocytes/macrophages and NK cells” value ([5]; prior to and after treatment) was “no significant changes”.
